Patent publication US20130131073A1, “FUSED-IMIDAZOYL COMPOUNDS USEFUL AS ANTIMICROBIAL AGENTS” (priority 2010, published 2013)
Values after ≈ are worked out from the molar mass of the structure shown.

Tested on: Staphylococcus aureus ATCC29213
Experiment: Broth microdilution susceptibility testing (MIC determination)
Format: cell-based
Details: Mueller Hinton broth, overnight incubation at 35° C., lowest concentration preventing visible growth, read-out: MIC Staph. aureus ATCC29213
Protocol: Susceptibility testing (MIC determinations) was performed using the standard broth microdilution methodology precisely as described in the Clinical Laboratory Standards Institute Document M7-A6; Methods for Dilution Antimicrobial Susceptibility Tests for Bacteria That Grow Aerobically; Approved Standard- Sixth Edition (ISBN 1-56238-486-4), CLSI, 940 West Valley Road, Suite 1400, Wayne, Pa. 19087-1898 USA. To perform the test, a series of 0.1 ml media in a 96-well plate is prepared with Mueller Hinton broth to which various concentrations of the test compound are added. The media are then inoculated with a standardized suspension of the test organism, Staphylococcus aureus ATCC29213. After overnight incubation at 35° C., the tests are examined and the minimal inhibitory concentration (MIC) is determined. MIC is defined as the lowest concentration of an antimicrobial agent that prevents visible growth of a microorganism in the broth microdilution susceptibility test

Row | Structure (SMILES) | MIC [µg/mL]
1 | Cc1cccc(C)c1N1CCN(C(=O)CNc2c(-c3ccc(N(C)C)cc3)nc3cnccn23)CC1 [compound 26] | 2 (≈ 4.14 µM)
2 | CN(C)c1ccc(-c2nc3cnccn3c2NCC(=O)N2CCN(c3c(Cl)cncc3Cl)CC2)cc1 [compound 31] | 0.08 (≈ 0.152 µM)
3 | CC(=O)N1CCN(C(=O)C(C)Nc2c(-c3ccc(N(C)C)cc3)nc3cnccn23)CC1 (centres unmarked) [compound 102] | 1.25 (≈ 2.87 µM)
4 | CC(Nc1c(-c2ccc(OC(F)(F)F)cc2)nc2cnccn12)C(=O)N1CCN(C)CC1 (centres unmarked) [compound 184] | 5 (≈ 11.1 µM)
5 | C=CCN1CCN(C(=O)C(C)Nc2c(-c3ccc(OC(F)(F)F)cc3)nc3cnccn23)CC1 (centres unmarked) [compound 189] | 5 (≈ 10.5 µM)
6 | CN1CCN(C(=O)CNc2c(-c3ccc(OC(F)(F)F)cc3)nc3cnccn23)CC1 [compound 268] | 10 (≈ 23 µM)
7 | O=C(CNc1c(-c2ccc(OC(F)(F)F)cc2)nc2cnccn12)N1CCN(c2ccncc2)CC1 [compound 269] | 1.25 (≈ 2.51 µM)
8 | O=C(CNc1c(-c2ccc(OC(F)(F)F)cc2)nc2cnccn12)N1CCN(c2ccccc2Cl)CC1 [compound 270] | 10 (≈ 18.8 µM)
9 | O=C(CNc1c(-c2ccc(OC(F)(F)F)cc2)nc2cnccn12)N1CCN(c2c(Cl)cncc2Cl)CC1 [compound 274] | 0.08 (≈ 0.141 µM)
10 | O=C(CNc1c(-c2ccc(OC(F)(F)F)cc2)nc2cnccn12)N1CCN(C(=O)OCc2ccccc2)CC1 [compound 275] | 10 (≈ 18 µM)
11 | Cc1cccc(N2CCN(C(=O)CNc3c(-c4ccc(OC(F)(F)F)cc4)nc4cnccn34)CC2)c1C [compound 276] | 10 (≈ 19.1 µM)
12 | O=C(CNc1c(-c2ccc(OC(F)(F)F)cc2)nc2cnccn12)N1CCN(CCC2CCCCC2)CC1 [compound 277] | 2.5 (≈ 4.71 µM)
13 | COc1cc(OC)nc(CN2CCN(C(=O)CNc3c(-c4ccc(OC(F)(F)F)cc4)nc4cnccn34)CC2)n1 [compound 280] | 10 (≈ 17.5 µM)
14 | COCCCN1CCN(C(=O)CNc2c(-c3ccc(OC(F)(F)F)cc3)nc3cnccn23)CC1 [compound 281] | 5 (≈ 10.2 µM)
15 | O=C(CNc1c(-c2ccc(OC(F)(F)F)cc2)nc2cnccn12)N1CCN(c2nc(-c3ccccc3)ns2)CC1 [compound 282] | 5 (≈ 8.61 µM)
16 | CC(c1ccccc1)N1CCN(C(=O)CNc2c(-c3ccc(OC(F)(F)F)cc3)nc3cnccn23)CC1 (centres unmarked) [compound 295] | 10 (≈ 19.1 µM)
17 | Cc1cccc(N2CCN(C(=O)C(C)Nc3c(-c4ccc(OC(F)(F)F)cc4)nc4cnccn34)CC2C)c1 (centres unmarked) [compound 318] | 10 (≈ 18.6 µM)
